The nature of the series: Solubility / dispersibility of the product in water. The series is classed as physicochemical. The settings on record: general statement in the description.

The text below walks through data of patent publication US20220017778A1, “Methods of Treating Inorganic Surfaces” (ZYDEX INC., priority 2018, published 2022).

Procedure: A two liter, three necked flask equipped with a condenser, stirrer, thermometer, and distillation head was charged with (i) 136 grams of methyltrimethoxysilane, (ii) 186 grams of monoehtylene glycol, and (iii) 0.6 grams of tetra isopropyltitanate was added into the mixture to facilitate a transesterification reaction to provide a non-ionic water soluble organosilane. This mixture was heated to 120° C. for two hours, during which 92 grams of methanol were recovered after which the reaction was deemed complete.
A two liter, three necked flask equipped with a condenser, stirrer, thermometer, and distillation head was charged with (i) 164 grams of methyltrimethoxysilane, (ii) 186 grams of monoehtylene glycol, and (iii) 0.6 grams of tetra isopropyltitanate was added into the mixture to facilitate a transesterification reaction to provide a non-ionic water soluble organosilane. This mixture was heated to 120° C. for two hours, during which 95 grams of methanol were recovered after which the reaction was deemed complete.

For `CO[Si](C)(OC)OC` [methyltrimethoxysilane (MTMS), methyltrimethoxysilane], the “water solubility, in words (description)” value was “insoluble in water”.
